Reference: patent publication US10053458B2, “Pyrimidine-2,4-diamine derivative and anticancer pharmaceutical composition comprising same as effective ingredient” (KOREA RESEARCH INSTITUTE OF CHEMICAL TECHNOLOGY, priority 2014, dated 2018)
Structures can show the parent of a compound that is named as a salt. Where two headings read alike, the source gives them in different places.

What was measured:
BaF3 EML4-ALK WT cells = experiment: Cytotoxicity on BaF3 cell transfected with EML4-ALK WT (WST-1); details: Ba/F3 EML4-ALK, 72 h, read-out: BaF3 EML4-ALK WT, IC50 of the cytotoxicity
H2228 = experiment: Cancer cell proliferation inhibition (SRB/MTS), H2228; details: read-out: H2228 GI50
Procedure: (§1) Cancer cell lines used in the experiments were all human-derived cancer cell lines, specifically H2228 and H3122, which are non-small cell lung cancer cell lines.
(§2) The cancer cell proliferation inhibition was measured using the MTS assay as follows. […] Each culture medium was placed in an incubator for 4 hours, taken out and left at room temperature for 10 minutes.

H3122 = experiment: Cancer cell proliferation inhibition (SRB/MTS), H3122; details: read-out: H3122 GI50
Procedure: as §1, §2

| SMILES | IC50 (BaF3 EML4-ALK WT cells) [nM] | GI50 (H2228; Homo sapiens, NCI-H2228, 72 h) [nM] | GI50 (H3122; Homo sapiens, NCI-H3122, 72 h) [nM] | GI50 (H2228) [nM] | GI50 (H3122) [nM] | GI50 (H2228; hydrochloride) [nM] | GI50 (H3122; hydrochloride) [nM] |
| --- | --- | --- | --- | --- | --- | --- | --- |
| COc1cc2c(cc1Nc1ncc(Cl)c(Nc3ccccc3S(=O)(=O)C(C)C)n1)CCCNC2(C)C [Example 104, 5-chloro-N4-(2-(isopropylsulfonyl)phenyl)-N2-(8-methoxy-1,1-dimethyl-2,3,4,5-tetrahydro-1H-benzo[c]azepin-7-yl)pyrimidine-2,4-diamine] | < 50 | < 50 | < 50 |  |  |  |  |
| COc1cc2c(cc1Nc1ncc(Cl)c(Nc3ccccc3S(=O)(=O)C(C)C)n1)CNCC21CC1 [Example 96, 5-chloro-N4-(2-(isopropylsulfonyl)phenyl)-N2-(6-methoxy-2,3-dihydro-1H-spiro(cyclopropane-1,4-isoquinolin)-7-yl)pyrimidine-2,4-diamine] | < 50 | < 50 | < 50 |  |  |  |  |
| COc1c(Nc2ncc(Cl)c(Nc3ccccc3S(=O)(=O)C(C)C)n2)cc2c(c1Cl)C(C)(C)NCC2 [Example 90, 5-chloro-N4-(2-(isopropylsulfonyl)phenyl)-N2-(8-chloro-7-methoxy-1,1-dimethyl-1,2,3,4-tetrahydroisoquinolin-6-yl)pyrimidine-2,4-diamine] | < 50 | < 50 | < 50 |  |  |  |  |
| CCOc1cc2c(cc1Nc1ncc(Cl)c(Nc3ccccc3S(=O)(=O)C(C)C)n1)CN(CC)CC2(C)C [Example 81, 5-chloro-N4-(2-(isopropylsulfonyl)phenyl)-N2-(6-ethoxy-2-ethyl-4,4-dimethyl-1,2,3,4-tetrahydroisoquinolin-7-yl)pyrimidine-2,4-diamine] | < 50 | < 50 | < 50 |  |  |  |  |
| COc1c(Nc2ncc(Cl)c(Nc3ccccc3S(=O)(=O)C(C)C)n2)cc2c(c1Br)C(C)(C)NCC2 [Example 89, 5-chloro-N4-(2-(isopropylsulfonyl)phenyl)-N2-(8-bromo-7-methoxy-1,1-dimethyl-1,2,3,4-tetrahydroisoquinolin-6-yl)pyrimidine-2,4-diamine] | < 50 | < 50 | < 50 |  |  |  |  |
| COc1cc2c(cc1Nc1ncc(Cl)c(Nc3ccccc3S(=O)(=O)C(C)C)n1)CCNC2C (stereo not drawn) [Example 25] |  | < 50 | 8.9 |  |  |  |  |
| COc1cc2c(cc1Nc1ncc(Cl)c(Nc3ccccc3S(=O)(=O)C(C)C)n1)C(C)NCC2 (stereo not drawn) [Example 46] | < 50 | < 50 | < 50 |  |  |  |  |
| CC(C)Oc1cc2c(cc1Nc1ncc(Cl)c(Nc3ccccc3S(=O)(=O)C(C)C)n1)CCNC2(C)C [Example 71, 5-chloro-N4-(2-(isopropylsulfonyl)phenyl)-N2-(7-isopropoxy-1,1-dimethyl-1,2,3,4-tetrahydroisoquinolin-6-yl)pyrimidine-2,4-diamine] | < 50 | < 50 | < 50 |  |  |  |  |
| COc1cc2c(cc1Nc1ncc(Cl)c(Nc3ccccc3S(=O)(=O)C(C)C)n1)CNCC2(C)C [Example 75, 5-chloro-N4-(2-(isopropylsulfonyl)phenyl)-N2-(6-methoxy-4,4-dimethyl-1,2,3,4-tetrahydroisoquinolin-7-yl)pyrimidine-2,4-diamine] | < 50 | < 50 | < 50 |  |  |  |  |
| COc1cc2c(cc1Nc1ncc(Cl)c(Nc3ccccc3S(=O)(=O)C(C)C)n1)C(C)(C)CNC2 [Example 12, 5-chloro-N4-(2-(isopropylsulfonyl)phenyl)-N2-(7-methoxy-4,4-dimethyl-1,2,3,4-tetrahydroisoquinolin-6-yl)pyrimidine-2,4-diamine] | < 50 | < 50 | < 50 |  |  |  |  |
| COc1cc2c(cc1Nc1ncc(Cl)c(Nc3ccccc3S(=O)(=O)C(C)C)n1)CCN(Cc1ccccc1)C2(C)C [Example 31, 5-chloro-N4-(2-(isopropylsulfonyl)phenyl)-N2-(2-benzyl-7-methoxy-1,1-dimethyl-1,2,3,4-tetrahydroisoquinolin-6-yl)pyrimidine-2,4-diamine] | < 50 | < 50 | < 50 |  |  |  |  |
| COc1cc2c(cc1Nc1ncc(Cl)c(Nc3ccccc3S(=O)(=O)C(C)C)n1)CC1(CC1)NC2C (stereo not drawn) [Example 30, 5-chloro-N4-(2-(isopropylsulfonyl)phenyl)-N2-(7-methoxy-1methyl-1,4-dihydro-2H-spiro[cyclopropane-1,3-isoquinoline]-6-yl)pyrimidine-2,4-diamine] | 5 | < 50 | < 50 |  |  |  |  |
| COc1cc2c(cc1Nc1ncc(Cl)c(Nc3ccccc3S(=O)(=O)C(C)C)n1)CNC2(C)C [Example 106, 5-chloro-N4-(2-(isopropylsulfonyl)phenyl)-N2-(6-methoxy-1,1-dimethylisoindolin-5-yl)pyrimidine-2,4-diamine] | < 50 | < 50 | < 50 |  |  |  |  |
| CC(C)Oc1cc2c(cc1Nc1ncc(Cl)c(Nc3ccccc3S(=O)(=O)C(C)C)n1)CCNC2C (stereo not drawn) [Example 70, 5-chloro-N4-(2-(isopropylsulfonyl)phenyl)-N2-(7-isopropoxy-1-methyl-1,2,3,4-tetrahydroisoquinolin 6 yl)pyrimidine-2,4-diamine] | < 50 | < 50 | < 50 |  |  |  |  |
| COc1cc2c(cc1Nc1ncc(Cl)c(Nc3ccccc3S(=O)(=O)C(C)C)n1)CN(C)CC2(C)C [Example 91, 5-chloro-N4-(2-(isopropylsulfonyl)phenyl)-N2-(6-methoxy-2,4,4-trimethyl-1,2,3,4-tetrahydroisoquinolin-7-yl)pyrimidine-2,4-diamine] | < 50 | < 50 | < 50 |  |  |  |  |
| COc1cc2c(cc1Nc1ncc(Cl)c(Nc3ccccc3S(=O)(=O)C(C)C)n1)CCNC2(C)C [Example 33, 5-chloro-N4-(2-(isopropylsulfonyl)phenyl)-N2-(7-methoxy-1,1-dimethyl-1,2,3,4-tetrahydroisoquinolin-6-yl)pyrimidine-2,4-diamine] |  |  |  | 18 | 11 |  |  |
| COc1cc2c(cc1Nc1ncc(Cl)c(Nc3ccccc3S(=O)(=O)C(C)C)n1)CCN(C(=O)CO)C2(C)C [Example 78, 1-6-(5-chloro-4-(2-(isopropylsulfonyl)phenylamino)pyrimidin-2-yl)amino-7-methoxy-1,1-dimethyl-3,4-dihydroisoquinolin-2(1H)-yl-2-hydroxyethane-1-one] | < 50 | < 50 | < 50 |  |  |  |  |
| CCC1(C)NCCc2cc(Nc3ncc(Cl)c(Nc4ccccc4S(=O)(=O)C(C)C)n3)c(OC)cc21 (stereo not drawn) [Example 73, 5-chloro-N4-(2-(isopropylsulfonyl)phenyl)-N2-(l-ethyl-7-methoxy-1-methyl-1,2,3,4-tetrahydroisoquinolin-6-yl)pyrimidine-2,4-diamine] | < 50 | < 50 | < 50 |  |  |  |  |
| CCC(C)Oc1cc2c(cc1Nc1ncc(Cl)c(Nc3ccccc3S(=O)(=O)C(C)C)n1)CCN(C(=O)C(F)(F)F)C2 (stereo not drawn) [Example 21] | < 50 | < 50 | < 50 |  |  |  |  |
| C[C@@H](Oc1cc(-c2cnn(C3CCNCC3)c2)cnc1N)c1c(Cl)ccc(F)c1Cl [Comparative Example 1, Crizotinib, reference compound] |  | 85 | 280 |  |  |  |  |
| CCOc1cc2c(cc1Nc1ncc(Cl)c(Nc3ccccc3S(=O)(=O)C(C)C)n1)CCNC2(C)C [Example 99, 5-chloro-N4-(2-(isopropylsulfonyl)phenyl)-N2-(7-ethoxy-1,1-dimethyl-1,2,3,4-tetrahydroisoquinolin-6-yl)pyrimidine-2,4-diamine] | < 50 | < 50 | < 50 |  |  |  |  |
| COc1cc2c(cc1Nc1ncc(Cl)c(Nc3ccccc3S(=O)(=O)C(C)C)n1)CN(C)CC2 [Example 35, 5-chloro-N4-(2-(isopropylsulfonyl)phenyl)-N2-(6-methoxy-2-methyl-1,2,3,4-tetrahydroisoquinolin-7-yl)pyrimidine-2,4-diamine] |  | < 50 | < 50 |  |  |  |  |
| COc1cc2c(cc1Nc1ncc(Cl)c(Nc3ccccc3S(=O)(=O)C(C)C)n1)CN(C(=O)CN(C)C)CC2(C)C [Example 94] | < 50 | < 50 | < 50 |  |  |  |  |
| COc1cc2c(cc1Nc1ncc(Cl)c(Nc3ccccc3S(=O)(=O)C(C)C)n1)C1(CCCC1)CNC2 [Example 14, 5-chloro-N4-(2-(isopropylsulfonyl)phenyl)-N2-(7-methoxy-2,3-dihydro-1H-spiro[cyclopentane-1,4-isoquinoline]-6-yl)pyrimidine-2,4-diamine] |  | < 50 | < 50 |  |  |  |  |
| COc1cc2c(cc1Nc1ncc(Cl)c(Nc3ccccc3S(=O)(=O)C(C)C)n1)CCNCC2(C)C [Example 105, 5-chloro-N4-(2-(isopropylsulfonyl)phenyl)-N2-(8-methoxy-1,1-dimethyl-2,3,4,5-tetrahydro-1H-benzo[d]azepin-7-yl)pyrimidine-2,4-diamine] | < 50 | < 50 | < 50 |  |  |  |  |
| COc1cc2c(cc1Nc1ncc(Cl)c(Nc3ccccc3S(=O)(=O)C(C)C)n1)CCN1C(=O)CNCC21 (stereo not drawn) [Example 84] |  | < 50 | < 50 |  |  |  |  |
| CCC1NCCc2cc(Nc3ncc(Cl)c(Nc4ccccc4S(=O)(=O)C(C)C)n3)c(OC)cc21 (stereo not drawn) [Example 27] |  | < 50 | 8.4 |  |  |  |  |
| COc1cc2c(cc1Nc1ncc(Cl)c(Nc3ccccc3S(=O)(=O)C(C)C)n1)C1CNCC(=O)N1CC2 (stereo not drawn) [Example 97] |  | < 50 | < 50 |  |  |  |  |
| COc1cc2c(cc1Nc1ncc(Cl)c(Nc3ccccc3S(=O)(=O)C(C)C)n1)CCNC2(C)C [Example 101, 5-chloro-N4-(2-(isopropylsulfonyl)phenyl)-N2-(7-methoxy-1,1-dimethyl-1,2,3,4-tetrahydroisoquinolin-6-yl)pyrimidine-2,4-diamine hydrochloride] |  |  |  |  |  | < 50 | < 50 |
